We go through 28 molecules from patent US11420961B2, “Heterocyclic compounds” (Hoffmann-La Roche Inc., priority 2017, dated 2022).

Structures are written as SMILES.

For orientation: IC50 means the point on the concentration scale where inhibition reaches its midpoint.

The target in one assay is T1, MAGL (recombinant wild-type) (Homo sapiens, UniProt Q99685).
T1 sequence (Q99685 1-303): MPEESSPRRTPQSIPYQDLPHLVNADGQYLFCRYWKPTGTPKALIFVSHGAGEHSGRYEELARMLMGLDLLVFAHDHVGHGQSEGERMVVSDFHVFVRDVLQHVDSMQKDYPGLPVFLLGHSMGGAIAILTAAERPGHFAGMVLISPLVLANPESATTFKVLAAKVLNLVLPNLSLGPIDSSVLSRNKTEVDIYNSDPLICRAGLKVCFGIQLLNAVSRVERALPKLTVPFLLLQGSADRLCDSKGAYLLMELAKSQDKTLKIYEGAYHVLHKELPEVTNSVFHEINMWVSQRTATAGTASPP
As to the kind of experiment: 4-NPA assay: MAGL inhibitory activity by hydrolysis of 4-nitrophenylacetate, absorbance at 405 nm. The assay is classed as biochemical. Conditions: 4-NPA assay (values without footnote [a]). Summed up:
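Compound (final 25 μM to 1.7 nM, 3-fold steps) was preincubated 15 min at RT with 1 nM MAGL in 50 mM Tris, 1 mM EDTA, then 300 μM 4-nitrophenylacetate was added. A405 was read after 5 min and again 80 min later at RT, and activity was taken as the difference between the two reads.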
With `O=C1COc2ccc(C(=O)N3CCC(C(c4ccc(F)cc4)c4cccc(F)n4)CC3)cc2N1` (single isomer, unassigned) [Example 118, 6-[4-[(S or R)-(4-fluorophenyl)-(6-fluoro-2-pyridyl)methyl]piperidine-1-carbonyl]-4H-1,4-benzoxazin-3-one], the IC50 was 4.8 nM.

On to `O=C1COc2ccc(C(=O)N3CCC(C(c4ccccc4)c4ccc(Cl)c(Cl)c4)CC3)cc2N1` (stereo not shown) [Example 4, 6-[4-[(3,4-Dichlorophenyl)-phenylmethyl]piperidine-1-carbonyl]-4H-1,4-benzoxazin-3-one], for which the IC50 is 0.69 nM.

`COc1ccc(C(c2ccccn2)C2CCN(C(=O)c3ccc4c(c3)NC(=O)CO4)CC2)cc1OC` (single isomer, unassigned) [Example 116, 6-[4-[(R or S)-(3,4-Dimethoxyphenyl)-(2-pyridyl)methyl]piperidine-1-carbonyl]-4H-1,4-benzoxazin-3-one]: the half-inhibitory concentration (IC50) was 55.4 nM.

Turning to `Cc1ccc(C(c2ccc(F)cc2)C2CCN(C(=O)c3ccc4c(c3)NC(=O)CO4)CC2)cc1` (single isomer, unassigned) [Example 112, 6-[4-[(S or R)-(4-Fluorophenyl)-(p-tolyl)methyl]piperidine-1-carbonyl]-4H-1,4-benzoxazin-3-one], the IC50 is 0.3 nM.

Take `Cn1cc(C2CCN(C(=O)c3ccc4c(c3)NC(=O)CO4)CC2)c2ccccc21` [Example 31, 6-[4-(1-methylindol-3-yl)piperidine-1-carbonyl]-4H-1,4-benzoxazin-3-one]: the IC50 stood at 28.9 nM.

For `O=C1COc2ccc(C(=O)N3CCC(C(c4ccccc4)c4ccccc4)CC3)cc2N1` [Example 2, 6-(4-Benzhydrylpiperidine-1-carbonyl)-4H-1,4-benzoxazin-3-one], the IC50 was 0.5 nM.

For `O=C1COc2ccc(C(=O)N3CCC(C(c4ccccc4)c4ccc(F)nc4)CC3)cc2N1` (single isomer, unassigned) [Example 102, 6-[4-[(S or R)-(6-Fluoro-3-pyridyl)-phenyl-methyl]piperidine-1-carbonyl]-4H-1,4-benzoxazin-3-one], the IC50 turned out to be 3.5 nM.

Take `O=C1COc2ccc(C(=O)N3CCC(C(c4ccccc4)c4ccc(F)nc4)CC3)cc2N1` (single isomer, unassigned) [Example 103, 6-[4-[(R or S)-(6-Fluoro-3-pyridyl)-phenyl-methyl]piperidine-1-carbonyl]-4H-1,4-benzoxazin-3-one]: the IC50 was 2.2 nM.

In the case of `COc1ccc(C(c2ccccc2)C2CN(C(=O)c3ccc4c(c3)NC(=O)CO4)C2)cc1OC` (stereo not shown) [Example 127, 6-[3-[(3,4-Dimethoxyphenyl)-phenyl-methyl]azetidine-1-carbonyl]-4H-1,4-benzoxazin-3-one], the IC50 came out at 802 nM.

Take `O=C1COc2ccc(C(=O)N3CCN(c4nsc5ccccc45)CC3)cc2N1` [Example 91, 6-[4-(1,2-benzothiazol-3-yl)piperazine-1-carbonyl]-4H-1,4-benzoxazin-3-one]: the IC50 is 2400 nM.

For `O=C1COc2ccc(C(=O)N3CCC(C(c4ccc(F)cc4)c4ccc(F)cc4)CC3)cc2N1` [Example 3, 6-[4-[Bis(4-fluorophenyl)methyl]piperidine-1-carbonyl]-4H-1,4-benzoxazin-3-one], the IC50 came to 2.03 nM.

On to `O=C1COc2ccc(C(=O)N3CCC(C4(c5ccc(Cl)cc5)CCCO4)CC3)cc2N1` (stereo not shown) [Example 53, 6-[4-[2-(4-chlorophenyl)oxolan-2-yl]piperidine-1-carbonyl]-4H-1,4-benzoxazin-3-one], for which the IC50 turned out to be 6.3 nM.

`O=C1COc2ccc(C(=O)N3CCC(C(c4ccccc4)c4ccc(OCCOCCF)cc4)CC3)cc2N1` (single isomer, unassigned) [Example 96, 6-[4-[(S or R)-[4-[2-(2-Fluoroethoxy)ethoxy]phenyl]-phenyl-methyl]piperidine-1-carbonyl]-4H-1,4-benzoxazin-3-one]: the IC50 amounted to 0.2 nM.

On to `O=C1COc2ccc(C(=O)N3CCC(c4nccc(C(F)(F)F)n4)C3)cc2N1` (stereo not shown) [Example 57, 6-[3-[4-(trifluoromethyl)pyrimidin-2-yl]pyrrolidine-1-carbonyl]-4H-1,4-benzoxazin-3-one], for which the IC50 amounted to 3020 nM.

As for `O=C1COc2ccc(C(=O)N3CCN(C(c4ccccc4)c4ccccc4)CC3)cc2N1` [Example 83, 6-(4-benzhydrylpiperazine-1-carbonyl)-4H-1,4-benzoxazin-3-one], the concentration for half-maximal inhibition (IC50) was found to be 3.09 nM.

In the case of `O=C1COc2ccc(C(=O)N3CCC([C@H](c4ccccc4)c4cccc(OCCOCCF)c4)CC3)cc2N1` [Example 66, 6-[4-[(R)-[3-[2-(2-fluoroethoxy)ethoxy]phenyl]-phenyl-methyl]piperidine-1-carbonyl]-4H-1,4-benzoxazin-3-one], the IC50 worked out at 0.24 nM.

With `O=C1COc2ccc(C(=O)N3CCC(C(O)(c4ccccc4)c4ccccc4)CC3)cc2N1` [Example 5, 6-[4-[Hydroxy(diphenyl)methyl]piperidine-1-carbonyl]-4H-1,4-benzoxazin-3-one], the IC50 worked out at 15 nM.

Consider `O=C1COc2ccc(C(=O)N3CCC(C(c4ccccc4)n4ccc5ccccc54)CC3)cc2N1` (stereo not shown) [Example 60, 6-[4-[indol-1-yl(phenyl)methyl]piperidine-1-carbonyl]-4H-1,4-benzoxazin-3-one], for which the IC50 was determined as 0.62 nM.

In the case of `O=C1COc2ccc(C(=O)N3CCC(c4cn(Cc5cccc(Cl)c5)c5ccccc45)CC3)cc2N1` [Example 35, 6-[4-[l-[(3-chlorophenyl)methyl]indol-3-yl]piperidine-1-carbonyl]-4H-1,4-benzoxazin-3-one], the IC50 is 37 nM.

As for `CS(=O)(=O)c1cccc(C(c2ccccc2)C2CCN(C(=O)c3ccc4c(c3)NC(=O)CO4)CC2)c1` (single isomer, unassigned) [Example 128, 6-[4-[(S or R)-(3-Methylsulfonylphenyl)-phenyl-methyl]piperidine-1-carbonyl]-4H-1,4-benzoxazin-3-one], the IC50 stood at 0.6 nM.

On to `O=C1COc2ccc(C(=O)N3CCN(c4ccc(C(F)(F)F)cn4)CC3)cc2N1` [Example 90, 6-[4-[5-(trifluoromethyl)-2-pyridyl]piperazine-1-carbonyl]-4H-1,4-benzoxazin-3-one], for which the IC50 is 2220 nM.

For `O=C1COc2ccc(C(=O)N3CCC(C(c4ccccc4)c4cccc(F)n4)CC3)cc2N1` (single isomer, unassigned) [Example 98, 6-[4-[(S or R)-(6-Fluoro-2-pyridyl)-phenyl-methyl]piperidine-1-carbonyl]-4H-1,4-benzoxazin-3-one], the IC50 turned out to be 1.8 nM.

Take `O=C1COc2ccc(C(=O)N3CCC(C4(c5ccccc5)CC4)CC3)cc2N1` [Example 55, 6-[4-(1-phenylcyclopropyl)piperidine-1-carbonyl]-4H-1,4-benzoxazin-3-one]: the IC50 was determined as 68 nM.

On to `COc1cc(C(=O)N2CCC(C(c3ccccc3)c3ccccc3)CC2)cc2c1CCC(=O)N2` [Example 101, 7-(4-Benzhydrylpiperidine-1-carbonyl)-5-methoxy-3,4-dihydro-1H-quinolin-2-one], for which the IC50 was 2.7 nM.

The next assay concerns the target T2, MAGL (Homo sapiens, UniProt Q99685).
T2 sequence (Q99685 1-303): T1 sequence (Q99685 1-303)
In words: 2-AG assay: MAGL inhibitory activity by hydrolysis of 2-arachidonoylglycerol to arachidonic acid, mass spectrometry. To be noted: 2-AG assay (values marked [a]). The class given is biochemical. The protocol: Alternatively, compounds were profiled for MAGL inhibitory activity by determining the enzymatic activity by following the hydrolysis of the natural substrate, 2-arachidonoylglycerol, resulting in arachidonic acid, which can be followed by mass spectrometry. This assay is hereinafter abbreviated “2-AG assay”.
The 2-AG assay was carried out in 384 well assay plates (PP, Greiner Cat #784201) in a total volume of 20 μL. Compound dilutions were made in 100% DMSO (VWR Chemicals 23500.297) in a polypropylene plate in 3-fold dilution steps to give a final concentration range in the assay from 12.5 μM to […]. 0.25 μL compound dilutions (100% DMSO) were added to 9 μL MAGL in assay buffer (50 mM TRIS (GIBCO, 15567-027), 1 mM EDTA (Fluka, 03690-100 ml), 0.01% (v/v) Tween. After shaking, the plate was incubated for 15 min at RT. To start the reaction, 10 μL 2-arachidonoylglycerol in assay buffer was added. The final concentrations in the assay was […] and 8 μM 2-arachidonoylglyerol. After shaking and 30 min incubation at RT, the reaction was quenched by the addition of 40 μL of acetonitrile containing 4 μM of d8-arachidonic acid. The amount of arachidonic acid was traced by an online SPE system (Agilent Rapidfire) coupled to a triple quadrupole mass spectrometer (Agilent 6460). A C18 SPE cartridge (G9205A) was used in an acetonitrile/water liquid setup. The mass spectrometer was operated in negative electrospray mode following the mass transitions 303.1→259.1 for arachidonic acid and 311.1→267.0 for d8-arachidonic acid. The activity of the compounds was calculated based on the ratio of intensities [arachidonic acid/d8-arachidonic acid].
As to `COc1cc(C(c2ccccc2)C2CCN(C(=O)c3ccc4c(c3)NC(=O)CO4)CC2)ccc1OCCF` (single isomer, unassigned) [Example 138, 6-[4-[(S or R)-[4-(2-Fluoroethoxy)-3-methoxy-phenyl]-phenyl-methyl]piperidine-1-carbonyl]-4H-1,4-benzoxazin-3-one], the IC50 is 9.41 nM.

For `O=C1COc2ccc(C(=O)N3CC(C(c4ccccc4)c4ccc(C(F)(F)F)cc4)C3)cc2N1` (stereo not shown) [Example 130, 6-[3-[Phenyl-[4-(trifluoromethyl)phenyl]methyl]azetidine-1-carbonyl]-4H-1,4-benzoxazin-3-one], it took 85.3 nM to reach half-maximal inhibition (IC50).

The molecule `Cn1ccc(C(c2ccccc2)C2CCN(C(=O)c3ccc4c(c3)NC(=O)CO4)CC2)cc1=O` (single isomer, unassigned) [Example 143, 6-[4-[(R or S)-(1-Methyl-2-oxo-4-pyridyl)-phenyl-methyl]piperidine-1-carbonyl]-4H-1,4-benzoxazin-3-one] gave an IC50 of 79.3 nM.

Consider `COc1ccc(C(c2ccccc2)C2CCN(C(=O)c3ccc4c(c3)NC(=O)CO4)CC2)cc1OCCF` (single isomer, unassigned) [Example 135, 6-[4-[(R or S)-[3-(2-Fluoroethoxy)-4-methoxy-phenyl]-phenyl-methyl]piperidine-1-carbonyl]-4H-1,4-benzoxazin-3-one], for which the IC50 worked out at 4.16 nM.
